This note sets out measurements from patent US4425356A, “Lankacidin derivatives used in swine husbandry” (Takeda Chemical Industries, Ltd., priority 1980, dated 1984).

Data set [1] concerns Treponema hyodysenteriae. Briefly: efficacy in experimental infection in mice with swine dysentery, Test Example 4. Format: in vivo. The settings on record: 5 mg/kg/day oral, day 1 to day 4; seven days after infection. As to the method: Lankacidin A, lankacidin C, lankacidin C 8-acetate, lankacidin C 14-propionate, lankacidinol A and lankacidinol were tested for efficacy against swine dysentery in experimental infection in mice with swine dysentery.
The similar experimental infection model of swine dysentery in mice as that described, for example, by Joens et al. in Infection and Immunity, 25, 757-760 (1979), American Journal of Veterinary Research, 41, 1225-1226 (1980) and Veterinary Record, 107, 527-529 (1980) was used. Thus, a field isolate of Treponema hyodysenteriae anaerobically cultivated on the 5% defibrinated horse blood added Trypticase soy agar (BBL) plate was mashed together with the culture medium and diluted two-fold with Trypticase soy broth (BBL). Mice were inoculated intragastrically with this infecting dilution. Each test agent was suspended in 5% gum arabic solution and forcibly administered orally from day 1 to day 4 following infection. Seven days after infection, the cecum was examined for lesions, and the cecum was mashed together with the contents and subjected to Treponema hyodysenteriae counting. Excellent efficacy was produced in each of the drug-administered groups.

The subject of data set [2] is Treponema hyodysenteriae. The data set can be described thus: in vitro antibacterial activity (MIC, agar dilution method), Test Examples 1-3. In kind it is cell-based. The note with it: 37° C., 2 days, anaerobic; for MIC: Brachyspira hyodysenteriae, 48 h. How it is done: Several agents were tested for in vitro antibacterial activity against Treponema hyodysenteriae, the pathogenic bacteria causing swine dysentery, by the method of testing drug sensitivity of Treponema hyodysenteriae (Kashiwazaki et al. Abstracts of Papers presented at the 82nd Meeting of the Japanese Society of Veterinary Science, page 101, 1976).
(1) Strains: These strains belong to Treponema hyodysenteriae isolated
from the bloody mucous faeces of dysenteric pigs in Japan.
(2) Antimicrobial activity assay: Agar dilution method
(3) Inoculum size: A loopful of bacterial suspension (10^6 CFU/ml)
(4) Cultural conditions: GasPak anaerobic system (BBL), 37° C., 2
Typical agents among compound (I) were tested for in vitro antibacterial activity by the same method as in Test Example 1.
The experimental conditions are the same as in Test Example 1 (Table 1).
Agents of compound (I) were tested for in vitro antibacterial activity by the same method as in Test Example 1.
For orientation: In agar dilution, organisms are placed on agar that contains the substance at set levels.

The test system of data set [3] is Treponema hyodysenteriae 78/A strain. Briefly: efficacy against swine dysentery under experimental infection conditions in pigs (drug in feed), Test Examples 5-7. Format: in vivo, Landrace pigs. The settings on record: for Number of days on which diarrhea was observed / Number of days on which mucous bloody stool was observed / Number of pigs showing signs of infection/number of pigs used: 21-day test period; for Body weight gain / Feed conversion / Feed intake: 21 day period; for Body weight gain / Feed conversion / Feed intake / Body weight at the time of completion of test: mean per head; for effect against swine dysentery (in words): pig, in vivo. As to the method:
Lankacidin C was tested for efficacy against swine dysentery under experimental infection conditions. Thus, twelve 6-week-old Landrace pigs (4 per group) were used. The test drug was admixed to a concentration of 100 ppm with the domestically formulated starter feed for young pigs without antibiotics. The animals were provided with the ration ad libitum. Infection of the pigs was effected by direct intragastrical administration to the SPF pigs of an inoculum prepared by preliminary anaerobic cultivation of the Treponema hyodysenteriae 78/A strain on a 5% horse blood added agar plate, mashing together with the culture medium and admixing with 5% mucin added phosphate buffer. Colonic contents and mucosa were collected from pigs which developed typical signs of swine dysentery, and diluted two-fold with 5% mucin added phosphate buffer. The dilution was used as the final inoculum, and 100 ml of the dilution was directly injected into the stomach of test pigs at the age of 7 weeks (fasted for 24 hours before infection). The pigs were fed for 21 days following infection.
The data are each the mean value per head for the 21day period from
infection to autopsy. Different alphabetic letters on the same line
indicate that there is a significant difference between the data to which
they are attached (P <0.05).
Lankacidin C was tested at concentrations in feed of 100 ppm and lower by the same method as in Test Example 5, with carbadox, a commonly used anti-swine-dysentery agent, for comparison.
The anti-swine-dysentery effects of 10 ppm each of lankacidin A and lankacidin C 14-propionate were examined by the procedure of Test Example 6.

Data set [4] in a line: acute toxicity tests with mice. The settings on record: mouse, in vivo. An excerpt: The toxicity of compound (I) in animals is very low.
The subject of data set [5] is Treponema hyodysenteriae 78/A strain. The data set can be described thus: therapeutic administration in pigs showing clinical signs of swine dysentery, Test Examples 8-9. Format: in vivo. The settings on record: for Condition of feces: Table 9, individual pig. As to the method: This test was conducted under the conditions of so-called therapeutic administration. […] The method of infection was the same as in Test Example 5. […] Simultaneously with showing of the signs, the pigs were provided with a feed containing 50 ppm of lankacidin C. […] After 2 days, the viable count for the pathogen in feces was below the detection limit (10^2 CFU/g).
The condition of feces was rated at one of the following four classes:
.circle. normal; loose; diarrheal; .circleincircle. mucous and bloody
count is below the detection limit (10^2 CFU/g).
The symbol * indicates those days on which the feed containing 50 ppm of
lankacidin C was given.
Lankacidins were tested for therapeutic effects in swine dysentery under therapeutic conditions in the same manner as in Test Example 8. The effects were judged based on the condition of feces.
The condition of feces was rated at one of the following four classes;
The symbol * indicates the days on which the feed containing 50 ppm of th

Setting [6] is: strain 78/A, read-out: Minimum Inhibitory Concentration.
Setting [7] is: strain CD1 (CD-1), read-out: Minimum Inhibitory Concentration.
The mark [8] stands for this setting: strain DJ70P1, read-out: Minimum Inhibitory Concentration.
Where [9] appears, read: strain MK-2, read-out: Minimum Inhibitory Concentration.

Values after ≈ are worked out from the molar mass of the structure shown. Like-named read-outs stand apart in the source and are kept apart here.

For orientation: LD50 means the dose at which mortality reaches 50%.

As to `CC(=O)OC1C=CC(C)=CC(NC(=O)C(C)=O)C2(C)C(=O)OC(CC(O)C=CC(C)=CC1)C(C)C2=O` (stereo not drawn) [Lankacidin C 8-acetate, lankacidin C 8-acetate], the “Number of mice from which the pathogen was detected/number of mice tested” value in data set [1] is on record as 0/5. In addition, the “Number of mice with cecal lesions/number of mice tested” value in data set [1] is recorded as 0/5. Further, the MIC came to 0.39 µg/mL (≈ 0.778 µM) in data set [2] (setting [6]), 0.39 µg/mL (≈ 0.778 µM) in data set [2] (setting [7]), 0.78 µg/mL (≈ 1.56 µM) in data set [2] (setting [8]) and 0.39 µg/mL (≈ 0.778 µM) in data set [2] (setting [9]).
In the case of Maridomycin [reference compound], in data set [3] (100 ppm in feed), the “Number of pigs from which the pathogen was detected, in colonic mucosa” value amounted to 4; the “Number of pigs from which the pathogen was detected, in feces” value stood at 4; the “Number of pigs showing colonic lesions” value came to 4; the “Number of days on which diarrhea was observed” value was 11.0 days. Besides, in data set [3] (100 ppm in feed), the “Number of days on which mucous bloody stool was observed” value was 5.5 days, the “Number of pigs showing signs of infection/number of pigs used” value was 3/4, the Body weight gain was 430 grams/day and the Feed conversion was 2.09. For the same compound, in data set [3] (100 ppm in feed), the Feed intake is 18.8 kg and the “Body weight at the time of completion of test” value turned out to be 21.9 kg. In data set [3], the “effect against swine dysentery (in words)” value is “ineffective”. For the same compound, the “Minimum Inhibitory Concentration” value in data set [2] (strain 78/A) is over 100 µg/mL. For the same compound, the “Minimum Inhibitory Concentration” value in data set [2] (strain CD1 (CD-1)) is over 100 µg/mL. The “Minimum Inhibitory Concentration” value in data set [2] (strain DJ70P1) is over 100 µg/mL. The “Minimum Inhibitory Concentration” value in data set [2] (strain MK-2) was over 100 µg/mL.
As for `CCC(=O)OC1C=CC(C)=CCC(O)C=CC(C)=CC(NC(=O)C(C)=O)C2(C)C(=O)OC(C1)C(C)C2=O` (stereo not drawn) [Lankacidin C 14-propionate, lankacidin C 14-propionate], the “Number of mice from which the pathogen was detected/number of mice tested” value in data set [1] is 1/5. Besides, in data set [1], the “Number of mice with cecal lesions/number of mice tested” value is recorded as 0/5. The “Number of pigs from which the pathogen was detected, in colonic mucosa” value in data set [3] (10 ppm in feed) is given as 0. Further, the “Number of pigs from which the pathogen was detected, in feces” value in data set [3] (10 ppm in feed) is 0. The “Number of pigs showing colonic lesions” value in data set [3] (10 ppm in feed) turned out to be 0. In addition, the “Number of days on which diarrhea was observed” value in data set [3] (10 ppm in feed) is 0 days. Further, the “Number of days on which mucous bloody stool was observed” value in data set [3] (10 ppm in feed) is reported as 0 days. Moreover, the “Number of pigs showing signs of infection/number of pigs used” value in data set [3] (10 ppm in feed) is on record as 0/4. In data set [3] (10 ppm in feed), this compound showed a Body weight gain of 562 grams/day. This compound displayed a Feed conversion in data set [3] (10 ppm in feed) of 1.81. The Feed intake in data set [3] (10 ppm in feed) came to 21.1 kg. Besides, the “Body weight at the time of completion of test” value in data set [3] (10 ppm in feed) amounted to 23.1 kg. Further, the “effect against swine dysentery (in words)” value in data set [3] is recorded as “distinctly effective against swine dysentery”. Further, the MIC in data set [2] (setting [6]) amounted to 1.56 µg/mL (≈ 3.03 µM); in data set [2] (setting [7]), 3.13 µg/mL (≈ 6.07 µM); in data set [2] (setting [8]), 3.13 µg/mL (≈ 6.07 µM); in data set [2] (setting [9]), 1.56 µg/mL (≈ 3.03 µM). For the same compound, the LD50 is over 10000 mg/kg in data set [4] (ip, intraperitoneal, read-out: intraperitoneal LD50) and over 10000 mg/kg in data set [4] (oral, read-out: oral LD50). In addition, in data set [5] (50 ppm in feed), the “therapeutic effect in swine dysentery (in words)” value is listed as “therapeutically effective”. Also, the Condition of feces entry was “.circle” in data set [5] (50 ppm in feed days 0-6, day 7); “.circle” in data set [5] (50 ppm in feed days 0-6, day 8); “.circle” in data set [5] (50 ppm in feed days 0-6, day 9); “.circle” in data set [5] (50 ppm in feed days 0-6, day 10); “.circle” in data set [5] (50 ppm in feed days 0-6, day 11); “.circle” in data set [5] (50 ppm in feed days 0-6, day 12). Besides, the Condition of feces entry in data set [5] (50 ppm in feed days 0-6, day 13) is on record as “.circle”; in data set [5] (50 ppm in feed days 0-6, day 14), “.circle”; in data set [5] (50 ppm in feed days 0-6, day 15) it was “.circle”; in data set [5] (50 ppm in feed days 0-6, day 16) it was “.circle”; in data set [5] (50 ppm in feed days 0-6, day 17), “.circle”; in data set [5] (50 ppm in feed days 0-6, day 18), “.circle”. Moreover, the Condition of feces result is “.circle” in data set [5] (50 ppm in feed days 0-6, day 19); “.circle” in data set [5] (50 ppm in feed days 0-6, day 20); “.circle” in data set [5] (50 ppm in feed days 0-6, day 21); “.circleincircle” in data set [5] (50 ppm in feed, day 0 after manifestation of signs); “.circle” in data set [5] (50 ppm in feed, day 1); “.circle” in data set [5] (50 ppm in feed, day 2). Moreover, the Condition of feces result in data set [5] (50 ppm in feed, day 3) is “.circle”; in data set [5] (50 ppm in feed, day 4) it was “.circle”; in data set [5] (50 ppm in feed, day 5), “.circle”; in data set [5] (50 ppm in feed, day 6) it was “.circle”.
With `CC1=CCC(O)C=CC(C)=CC(NC(=O)C(C)O)C2(C)C(=O)OC(CC(O)C=C1)C(C)C2=O` (stereo not drawn) [Lankacidinol, lankacidinol], the “Number of mice from which the pathogen was detected/number of mice tested” value in data set [1] was 0/5. Besides, the “Number of mice with cecal lesions/number of mice tested” value in data set [1] was 0/5. The MIC in data set [2] (read-out: Minimum Inhibitory Concentration, strain 78/A) was found to be 12.5 µg/mL (≈ 27.1 µM); in data set [2] (read-out: Minimum Inhibitory Concentration, strain CD1 (CD-1)), 12.5 µg/mL (≈ 27.1 µM); in data set [2] (read-out: Minimum Inhibitory Concentration, strain DJ70P1) it was 25 µg/mL (≈ 54.2 µM); in data set [2] (read-out: Minimum Inhibitory Concentration, strain MK-2) it was 25 µg/mL (≈ 54.2 µM).
As to `CC(=O)OC1C=CC(C)=CCC(O)C=CC(C)=CC(NC(=O)C(C)O)C2(C)C(=O)OC(C1)C(C)C2=O` (stereo not drawn) [Lankacidinol A, lankacidinol A], in data set [1], the “Number of mice from which the pathogen was detected/number of mice tested” value is listed as 1/5. Besides, in data set [1], the “Number of mice with cecal lesions/number of mice tested” value is listed as 0/5. The MIC was 12.5 µg/mL (≈ 24.8 µM) in data set [2] (setting [6]), 25 µg/mL (≈ 49.6 µM) in data set [2] (setting [7]), 25 µg/mL (≈ 49.6 µM) in data set [2] (setting [8]) and 25 µg/mL (≈ 49.6 µM) in data set [2] (setting [9]).
